Data from patent US20070258972A1, “Combination of a Histone Deacetylase Inhibitor with a Death Receptor Ligand” (priority 2003, published 2007).

Key:
Assay type in all cases: cell-based, human
Jurkat and SKW 6.4 cells [1] = test: Western analyses of proteins, Jurkat and SKW 6.4 cells
Experimental: Western analyses of DR4, DR5, Apo-2L, FADD, Caspase-8, c-FLIPL & S, BID, Caspase-9, Caspase-3, PARP, XIAP, clAP1, survivin and β-actin are performed using specific anti-sera or monoclonal antibodies according to previously reported protocols. Horizontal scanning densitometry was performed on Western blots by using acquisition into Adobe Photo Shop (Apple, Inc., Cupertino, Calif.) and analysis by the NIH Image Program (U.S. National Institutes of Health, Bethesda, Md.). The expression of β-actin was used as a control.

SKW 6.4 and Jurkat cells = test: Flow cytometry analysis of cell cycle status; conditions: 24 hours
Experimental: The flow cytometric evaluation of the cell cycle status is performed according to a previously described method. The percentage of cells in the G1, S-phase, and G2/M phases are calculated using Multicycle software (Phoenix Flow Systems, San Diego, Calif.).

Primary AML cells = test: Apoptosis of primary AML cells by annexin V staining and flow cytometry; conditions: for % of Apoptosis: LAQ824 100 nM and/or Apo-2L/TRAIL 100 ng/mL, 24 hours
Description: Jurkat T cell leukemia and SKW6.4 B lymphoblast cells are obtained from American Tissue Culture Collection (Manassas, Va.). HL-60/Bcl-2 cells with ectopic over-expression of Bcl-2 and the control HL-60/Neo cells are created and maintained in culture as previously described. Primary leukemia blasts from six patients with AML in relapse are harvested, as previously described, from the peripheral blood or bone marrow after informed consent, as a part of a protocol study sanctioned by the local Institutional Review Board. The purity of leukemia blasts in the samples prior to culture in LAQ824 and/or Apo-2L/TRAIL was at least 80% or more, as determined by morphologic evaluation after Wright staining.
(§1) After drug treatments, cells are resuspended in 100 μL of the staining solution containing annexin-V fluorescein and propidium iodide in a HEPES buffer (Annexin-V-FLUOS Staining Kit, Boehringer-Mannheim, and Indianapolis, Ind.). Following incubation at room temperature for 15 minutes, annexin V positive cells are estimated by flow cytometry, as previously described.

[2] = test system: DR5 promoter associated with acetylated histones H3 and H4; test: ChIP assay, DR5 promoter; conditions: 8 hours, Jurkat cells
Experimental: ChIP analysis was performed by a slight modification of a previously described method. Cells are incubated overnight at a density of 0.25×10^8 cells/ ml at 37° C. with 5% CO2. […] Formaldehyde was then added to the cells to a final concentration of 1%, and the cells are gently shaken at room temperature for 10 minutes. Following this, the cells are pelleted, suspended in 1 mL of ice-cold PBS containing protease inhibitors (Complete, Boehringer Mannheim). Cells are again pelleted, re-suspended in 0.5 mL of SDS lysis buffer (1% SDS/1.0 mM EDTA/50 mM Tris.HCl, pH 8.1) and incubated on ice for 20 minutes. Lysates are sonicated with 15-second bursts. Debris was removed from samples by centrifugation for 20 minutes at 15,000×g at 4° C. An aliquot of the chromatin preparation (100 μL) was set aside and designated as Input Fraction. […] Immunoprecipitated DNA (both immunoprecipitation samples and Input) was recovered by phenol/chloroform extraction and ethanol precipitation and analyzed by PCR. […] The optimal reaction conditions for PCR are determined for each primer pair. […] The ratio between the immunoprecipitated DNA and Input DNA was calculated for each treatment and primer set. The fold increases after treatment with LAQ824 was calculated from the indicated ratio.

Jurkat and SKW 6.4 cells [3] = test: Apoptosis assessment by annexin-V staining, Jurkat and SKW 6.4 cells; conditions: 10-200 nM, 24 hours; more in Jurkat than in SKW 6.4 cells
Experimental: as §1

O=C(/C=C/c1ccc(CN(CCO)CCc2c[nH]c3ccccc23)cc1)NO [LAQ824, N-hydroxy-3-[4-[[(2-hydroxyethyl)[2-(1H-indol-3-yl)ethyl]-amino]methyl]phenyl]-2E-2-propenamide]
acetylation of histone H3 and histone H4 (Jurkat and SKW 6.4 cells [1]; 50 nM or 200 nM, 24 hours, Jurkat and SKW 6.4 cells): increased | intracellular levels of p27 (Jurkat and SKW 6.4 cells [1]; 50 nM, SKW 6.4 and Jurkat cells): increase | p27 levels (Jurkat and SKW 6.4 cells [1]; 200 nM, both cell-types): attenuated | Apo-2L/TRAIL, DR4 and DR5 levels (Jurkat and SKW 6.4 cells [1]; 24 hours, SKW 6.4 and Jurkat cells): induces | levels of Bcl-xL, Bcl-2, XIAP, c-IAP and survivin (Jurkat and SKW 6.4 cells [1]; SKW 6.4 and Jurkat cells): attenuates | levels of FLIPL and FLIPS (Jurkat and SKW 6.4 cells [1]; SKW 6.4 and Jurkat cells): attenuates | levels of p21 (Jurkat and SKW 6.4 cells [1]; SKW 6.4 cells): dose-dependent increase | cells in the S phase of the cell cycle (SKW 6.4 and Jurkat cells): decline | percentage of cells in the G1 phase (SKW 6.4 and Jurkat cells): markedly increases | % of Apoptosis (Primary AML cells; Patient 1 primary AML cells, control 7.0): 14.5% | % of Apoptosis (Primary AML cells; Patient 2 primary AML cells, control 12.0): 29.5% | % of Apoptosis (Primary AML cells; Patient 3 primary AML cells, control 8.0): 22.9% | % of Apoptosis (Primary AML cells; Patient 4 primary AML cells, control 10.0): 27.9% | % of Apoptosis (Primary AML cells; Patient 5 primary AML cells, control 6.0): 57.8% | % of Apoptosis (Primary AML cells; Patient 6 primary AML cells, control 7.0): 7.9% | apoptosis of primary AML blasts (in words) (Primary AML cells; six samples, relapsed AML, Apo-2L/TRAIL 100 ng/mL, LAQ824 100 nM): induces more apoptosis | increase of DR5 promoter associated with acetylated histones H3 and H4 ([2]; first of 'respectively' (100 nM / H3)): 3.3 fold | increase of DR5 promoter associated with acetylated histones H3 and H4 ([2]; second of 'respectively' (200 nM / H4)): 5.7 fold | apoptosis, positive staining for annexin V (Jurkat and SKW 6.4 cells [3]): induces apoptosis in a dose-dependent manner
